Measured values as given in patent publication US12077503B2, “Substituted cyclic amides and their use as herbicides” (FMC CORPORATION, priority 2015, dated 2024).

Experiments:
Assay type in all cases: in vivo
[1] = test system: ragweed (common ragweed, Ambrosia elatior); assay: Test A postemergence; conditions: for Ragweed plant response rating: 125 g ai/ha, postemergence, visual injury rating on 0 to 100 scale (0 no effect, 100 complete control), approx. 10 d; for Plant response rating, Ragweed: Postemergence, 500 g ai/ha, 0 to 100 scale where 0 is no effect and 100 is complete control
Procedure, shortened: (§1)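 Treatment is preemergence as a directed soil spray after planting, or postemergence at the one- to two-leaf stage, with test chemical in a non-phytotoxic solvent mixture plus surfactant. Plants stay in the greenhouse about 10 d before visual injury scoring on a 0 to 100 scale versus untreated controls.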

[2] = test system: Kochia (Kochia scoparia); assay: Test A postemergence; conditions: for Kochia plant response rating: 125 g ai/ha, postemergence, visual injury rating on 0 to 100 scale (0 no effect, 100 complete control), approx. 10 d; for Plant response rating, Kochia: Postemergence, 500 g ai/ha, 0 to 100 scale where 0 is no effect and 100 is complete control
Procedure, shortened: as §1

[3] = test system: blackgrass (Alopecurus myosuroides); assay: Test A postemergence; conditions: postemergence; for Blackgrass plant response rating: 125 g ai/ha, visual injury rating on 0 to 100 scale (0 no effect, 100 complete control), approx. 10 d; for Plant response rating, Blackgrass: 500 g ai/ha, 0 to 100 scale, 0 no effect, 100 complete control
Procedure, shortened: as §1

[4] = test system: giant foxtail (Setaria faberii); assay: Test A postemergence; conditions: for Foxtail, Giant plant response rating: 125 g ai/ha, postemergence, visual injury rating on 0 to 100 scale (0 no effect, 100 complete control), approx. 10 d; for Plant response rating, Foxtail, Giant: Postemergence, 500 g ai/ha, 0 to 100 scale where 0 is no effect and 100 is complete control
Procedure, shortened: as §1

[5] = test system: wheat (Triticum aestivum); assay: Test A postemergence; conditions: for Wheat plant response rating: 125 g ai/ha, postemergence, visual injury rating on 0 to 100 scale (0 no effect, 100 complete control), approx. 10 d; for Plant response rating, Wheat: Postemergence, 500 g ai/ha, 0 to 100 scale where 0 is no effect and 100 is complete control
Procedure, shortened: as §1

[6] = test system: pigweed (Amaranthus retroflexus); assay: Test A postemergence; conditions: for Pigweed plant response rating: 125 g ai/ha, postemergence, visual injury rating on 0 to 100 scale (0 no effect, 100 complete control), approx. 10 d; for Plant response rating, Pigweed: Postemergence, 500 g ai/ha, 0 to 100 scale where 0 is no effect and 100 is complete control
Procedure, shortened: as §1

[7] = test system: Galium (catchweed bedstraw, Galium aparine); assay: Test A postemergence; conditions: for Galium plant response rating: 125 g ai/ha, postemergence, visual injury rating on 0 to 100 scale (0 no effect, 100 complete control), approx. 10 d; for Plant response rating, Galium: Postemergence, 500 g ai/ha, 0 to 100 scale where 0 is no effect and 100 is complete control
Procedure, shortened: as §1

[8] = test system: barnyardgrass (Echinochloa crus-galli); assay: Test A postemergence; conditions: postemergence; for Barnyardgrass plant response rating: 125 g ai/ha, visual injury rating on 0 to 100 scale (0 no effect, 100 complete control), approx. 10 d; for Plant response rating, Barnyardgrass: 500 g ai/ha, 0 to 100 scale, 0 no effect, 100 complete control
Procedure, shortened: as §1

[9] = test system: corn (Zea mays); assay: Test A postemergence; conditions: postemergence; for Corn plant response rating: 125 g ai/ha, visual injury rating on 0 to 100 scale (0 no effect, 100 complete control), approx. 10 d; for Plant response rating, Corn: 500 g ai/ha, 0 to 100 scale, 0 no effect, 100 complete control
Procedure, shortened: as §1

[10] = test system: ryegrass, Italian (Italian ryegrass, Lolium multiflorum); assay: Test A postemergence; conditions: for Ryegrass, Italian plant response rating: 125 g ai/ha, postemergence, visual injury rating on 0 to 100 scale (0 no effect, 100 complete control), approx. 10 d; for Plant response rating, Ryegrass, Italian: Postemergence, 500 g ai/ha, 0 to 100 scale where 0 is no effect and 100 is complete control
Procedure, shortened: as §1

[11] = test system: ragweed (common ragweed, Ambrosia elatior); assay: Test A preemergence; conditions: Preemergence; for Plant response rating, Ragweed: 125 g ai/ha, visual injury after approximately 10 d, 0 to 100 scale where 0 is no effect and 100 is complete control
Procedure, shortened: as §1

[12] = test system: Kochia (Kochia scoparia); assay: Test A preemergence; conditions: for Plant response rating, Kochia: 125 g ai/ha, preemergence, 0 to 100 scale (0 no effect, 100 complete control); for Kochia plant response rating (0 to 100 scale, 0 is no effect, 100 is complete control): Preemergence, 500 g ai/ha, visual injury approx. 10 d
Procedure, shortened: as §1

[13] = test system: giant foxtail (Setaria faberii); assay: Test A preemergence; conditions: for Plant response rating, Foxtail, Giant: 125 g ai/ha, preemergence, 0 to 100 scale (0 no effect, 100 complete control); for Foxtail, Giant plant response rating (0 to 100 scale, 0 is no effect, 100 is complete control): Preemergence, 500 g ai/ha, visual injury approx. 10 d
Procedure, shortened: as §1

[14] = test system: pigweed (Amaranthus retroflexus); assay: Test A preemergence; conditions: Preemergence; for Plant response rating, Pigweed: 125 g ai/ha, visual injury after approximately 10 d, 0 to 100 scale where 0 is no effect and 100 is complete control; for Pigweed plant response rating (0 to 100 scale, 0 is no effect, 100 is complete control): 500 g ai/ha, visual injury approx. 10 d
[15] = test system: barnyardgrass (Echinochloa crus-galli); assay: Test A preemergence; conditions: for Plant response rating, Barnyardgrass: 125 g ai/ha, preemergence, 0 to 100 scale (0 no effect, 100 complete control); for Barnyardgrass plant response rating (0 to 100 scale, 0 is no effect, 100 is complete control): Preemergence, 500 g ai/ha, visual injury approx. 10 d
Procedure, shortened: as §1

[16] = test system: ryegrass, Italian (Italian ryegrass, Lolium multiflorum); assay: Test A preemergence; conditions: Preemergence; for Plant response rating, Ryegrass, Italian: 125 g ai/ha, visual injury after approximately 10 d, 0 to 100 scale where 0 is no effect and 100 is complete control; for Ryegrass, Italian plant response rating (0 to 100 scale, 0 is no effect, 100 is complete control): 500 g ai/ha, visual injury approx. 10 d
Procedure, shortened: as §1

[17] = test system: sedge, umbrella (small-flower umbrella sedge, Cyperus difformis); assay: Test B flooded paddy test; conditions: Flood, 250 g ai/ha; 0 to 100 scale where 0 is no effect and 100 is complete control; 13 to 15 d
Procedure, shortened: (§2)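 Rating scale 0–100 (visual, vs untreated controls) after a 13–15 d greenhouse period; application to the flood layer, 3 cm above soil and maintained; plants at 2-leaf stage when treated.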

[18] = test system: rice (Oryra sativa); assay: Test B flooded paddy test; conditions: Flood, 250 g ai/ha; 0 to 100 scale where 0 is no effect and 100 is complete control; 13 to 15 d
Procedure, shortened: as §2

[19] = test system: barnyardgrass (Echinochloa crus-galli); assay: Test B flooded paddy test; conditions: Flood, 250 g ai/ha; 0 to 100 scale where 0 is no effect and 100 is complete control; 13 to 15 d
Procedure, shortened: as §2

[20] = test system: ducksalad (Heteranthera limosa); assay: Test B flooded paddy test; conditions: Flood, 250 g ai/ha; 0 to 100 scale where 0 is no effect and 100 is complete control; 13 to 15 d
Procedure, shortened: as §2

CC(C)c1ccc(C2CNC(=O)C2C(=O)Nc2ccccc2F)cc1 (centres unmarked) [Compound 469]
Ragweed plant response rating [1]: 0 | Plant response rating, Ragweed [1]: 0 | Kochia plant response rating [2]: 0 | Plant response rating, Kochia [2]: 0 | Blackgrass plant response rating [3]: 0 | Plant response rating, Blackgrass [3]: 40 | Foxtail, Giant plant response rating [4]: 20 | Plant response rating, Foxtail, Giant [4]: 60 | Wheat plant response rating [5]: 0 | Plant response rating, Wheat [5]: 0 | Pigweed plant response rating [6]: 0 | Plant response rating, Pigweed [6]: 0 | Galium plant response rating [7]: 0 | Plant response rating, Galium [7]: 0 | Barnyardgrass plant response rating [8]: 70 | Plant response rating, Barnyardgrass [8]: 80 | Corn plant response rating [9]: 0 | Plant response rating, Corn [9]: 0 | Ryegrass, Italian plant response rating [10]: 0 | Plant response rating, Ryegrass, Italian [10]: 20 | Plant response rating, Ragweed [11]: 0 | Ragweed plant response rating (0 to 100 scale, 0 is no effect, 100 is complete control) ([11]; 500 g ai/ha, visual injury approx. 10 d): 0 | Plant response rating, Kochia [12]: 0 | Kochia plant response rating (0 to 100 scale, 0 is no effect, 100 is complete control) [12]: 0 | Plant response rating, Foxtail, Giant [13]: 80 | Foxtail, Giant plant response rating (0 to 100 scale, 0 is no effect, 100 is complete control) [13]: 90 | Plant response rating, Pigweed [14]: 0 | Pigweed plant response rating (0 to 100 scale, 0 is no effect, 100 is complete control) [14]: 0 | Plant response rating, Barnyardgrass [15]: 80 | Barnyardgrass plant response rating (0 to 100 scale, 0 is no effect, 100 is complete control) [15]: 90 | Plant response rating, Ryegrass, Italian [16]: 0 | Ryegrass, Italian plant response rating (0 to 100 scale, 0 is no effect, 100 is complete control) [16]: 0 | Plant response rating, Sedge, Umbrella [17]: 0 | Plant response rating, Rice [18]: 0 | Plant response rating, Barnyardgrass [19]: 40 | Plant response rating, Ducksalad [20]: 70

CC(C)c1ccc(C2CNC(=O)C2C(=O)Nc2cccc(F)c2F)cc1 (centres unmarked) [Compound 470]
Ragweed plant response rating [1]: 0 | Plant response rating, Ragweed [1]: 0 | Kochia plant response rating [2]: 0 | Plant response rating, Kochia [2]: 0 | Blackgrass plant response rating [3]: 30 | Plant response rating, Blackgrass [3]: 50 | Foxtail, Giant plant response rating [4]: 40 | Plant response rating, Foxtail, Giant [4]: 80 | Wheat plant response rating [5]: 0 | Plant response rating, Wheat [5]: 0 | Pigweed plant response rating [6]: 0 | Plant response rating, Pigweed [6]: 0 | Galium plant response rating [7]: 0 | Plant response rating, Galium [7]: 0 | Barnyardgrass plant response rating [8]: 60 | Plant response rating, Barnyardgrass [8]: 70 | Corn plant response rating [9]: 0 | Plant response rating, Corn [9]: 0 | Ryegrass, Italian plant response rating [10]: 0 | Plant response rating, Ryegrass, Italian [10]: 20 | Plant response rating, Ragweed [11]: 0 | Plant response rating, Kochia [12]: 70 | Kochia plant response rating (0 to 100 scale, 0 is no effect, 100 is complete control) [12]: 40 | Plant response rating, Foxtail, Giant [13]: 90 | Foxtail, Giant plant response rating (0 to 100 scale, 0 is no effect, 100 is complete control) [13]: 90 | Plant response rating, Pigweed [14]: 0 | Pigweed plant response rating (0 to 100 scale, 0 is no effect, 100 is complete control) [14]: 20 | Plant response rating, Barnyardgrass [15]: 90 | Barnyardgrass plant response rating (0 to 100 scale, 0 is no effect, 100 is complete control) [15]: 90 | Plant response rating, Ryegrass, Italian [16]: 0 | Ryegrass, Italian plant response rating (0 to 100 scale, 0 is no effect, 100 is complete control) [16]: 30 | Plant response rating, Sedge, Umbrella [17]: 0 | Plant response rating, Rice [18]: 0 | Plant response rating, Barnyardgrass [19]: 0 | Plant response rating, Ducksalad [20]: 85
